Where a name gives a salt, the structure may show the parent alone.
Key:
[1] = system: Rat carrageenin pedal edema; assay: Rat carrageenin pedal edema inhibitory activity; format: in vivo, rat (Jcl: SD); settings: 50 mg/kg, orally, 3 hours after carrageenin; for inhibition in vivo at 50 mg/kg: Rattus norvegicus, po, 3 h, read-out: Inhibitory percentage (carrageenin pedal edema)
Procedure: Rat Carrageenin Pedal Edema Inhibitory Activity A Jcl: SD male rat (6 weeks old, weight 160-220 g) was used. After the mesurement of the volume of the dexter hind limb foot pad, a test compound suspended in 5% gum arabic solution was administered orally. Immediately after the administration, water was further administered orally so that the total administration volume of liquid became 5 ml/rat. After one hour, 0.05 ml of 1% carrageenin suspension in physiological saline was injected subcutaneously in the foot pad to induce edema [Winter, […]. and Nuss, G. W.: Proc. Soc. exp. […] Three hours after injection of carrageenin, the volume of the dexter limb was measured, and the edema volume was calculated by the difference between the volume after injection and the volume prior to injection.

cyclooxygenase = biological target: T1, cyclooxygenase (Rattus norvegicus, UniProt Q63921); assay: Cyclooxygenase inhibitory activity (HHT formation from arachidonic acid in rat platelet-rich plasma); format: cell-based, rat (Jcl:wistar)
T1 construct: from tissue; host or cells: platelets in platelet-rich plasma from rat abdominal aorta blood (Jcl:wistar, male)
T1 sequence (Q63921 27-602): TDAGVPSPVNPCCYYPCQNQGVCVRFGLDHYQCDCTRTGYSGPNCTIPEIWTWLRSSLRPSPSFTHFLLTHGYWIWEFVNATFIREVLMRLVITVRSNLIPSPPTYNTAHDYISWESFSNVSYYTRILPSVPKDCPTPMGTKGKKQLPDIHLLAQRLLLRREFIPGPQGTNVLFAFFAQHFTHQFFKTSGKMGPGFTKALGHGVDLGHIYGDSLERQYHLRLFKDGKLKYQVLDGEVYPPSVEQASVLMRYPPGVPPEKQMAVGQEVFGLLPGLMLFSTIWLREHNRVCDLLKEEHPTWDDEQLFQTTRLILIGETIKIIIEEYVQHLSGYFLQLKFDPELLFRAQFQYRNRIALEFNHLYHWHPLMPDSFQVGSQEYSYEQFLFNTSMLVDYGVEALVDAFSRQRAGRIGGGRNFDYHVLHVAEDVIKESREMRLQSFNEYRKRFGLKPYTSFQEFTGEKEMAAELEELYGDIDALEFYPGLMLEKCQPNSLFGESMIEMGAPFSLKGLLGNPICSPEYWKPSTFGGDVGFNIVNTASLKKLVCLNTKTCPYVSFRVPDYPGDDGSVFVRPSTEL

[2] = system: ART (antigen-responding T-cell); assay: In vitro ART (antigen-responding T-cell) proliferation test; format: cell-based, Lewis rat; settings: for inhibition at 1 µM / inhibition at 10 µM: Rattus norvegicus, T-cell, read-out: % Inhibition of ART growth
[3] = system: Mouse phenylquinone writhing; assay: Mouse phenylquinone writhing inhibitory activity; format: in vivo, mouse (Slc: ICR); settings: 50 mg/kg, orally; for inhibition in vivo at 50 mg/kg: Mus musculus, po, 20 min, read-out: Inhibitory percentage (phenylquinone writhing)
Procedure: Mouse Phenylquinone Writhing Inhibitory Activity A Slc: ICR male mouse (4 weeks, weight 17 to 24 g) was used. A test compound suspended in 5% gum arabic solution was administered orally. After 30 minutes, 0.1 ml/10 g body weight of 0.02% phenylquinone solution in water (dissolved by the aid of 5% ethanol) was injected intraperitoneally, and writhing and stretching responses of individual animals were measured for 20 minutes [Siegmund, E., Cadmus, R. and Lu, G.; Proc. Soc. exp. Biol. Med. 95, (1957)].

[4] = system: brewer's yeast induced pyrexia; assay: Antipyretic activity (brewer's yeast induced pyrexia); format: in vivo, rat (DS line); settings: 50 mg/kg, orally; for Antipyretic activity, .increment. °C.: at peak time
Procedure: Antipyretic Activity Six male DS line rats, 7 weeks old, weighing 200 to 240 g (Nihon Clea) per one group were used. According to the method of Winder et al. (J. Pharmac. Exp. Ther. 138: 405 (1963)), a suspension of 15% brewer's yeast (Sigma) in physiological saline (1 ml/100 g, b.w.) was injected subcutaneously at 16 hours before measurement of the body temperature to induce pyrexia. After injection of yeast, only water was provided, and each rat was bred separately in a five duplicate cage. At 16, 17 and 18 hours after yeast injection, the rectal temperature was measured by a thermistor thermometer (Takara Kogyo K.K.), and this was taken as the basal body temperature. […] Animals having the body temperature of not lower than 38.5° C. at 18 hours after yeast injection were selected, and a test compound was administered orally (1 ml/100 g, b.w.). As a control, only the solvent was provided. Upon administration, the body temperature of the control group and that of the test compound-administered group were adjusted to the same temperature. The rectal temperature was measured every hour till five hours after administration.

| Compound | IC50 (cyclooxygenase) [µM] | inhibition in vivo at 50 mg/kg [1] [%] | inhibition in vivo at 50 mg/kg [3] [%] | other results |
| --- | --- | --- | --- | --- |
| 4-(4-isobutyrylpiperidylthio)pyridine [Example 136] | – | – | – | Inhibitory percentage (carrageenin pedal edema) [1]: 33% |
| O=C(NCCCSc1ccncc1)c1ccc(Cl)cc1 [Example 29, 4-[3-(4-chlorobenzoylamino)propylthio]pyridine hydrochloride] | – | 25 | – | – |
| O=C1c2ccccc2C(=O)N1CSc1ccccn1 [Example 64, 2-(phthalimidomethylthio)pyridine] | – | – | 56 | Antipyretic activity, peak time [4]: 3 h; Antipyretic activity, .increment. °C. [4]: -2.58 °C |
| CC(C)(C)C(=O)Nc1ncccc1CCN1C(=O)c2ccccc2C1=O.Cl [Example 71, 3-[2-(phthalimido)ethyl]-2-(pivaloylamino)pyridine hydrochloride] | – | – | 55 | Antipyretic activity, peak time [4]: 2 h; Antipyretic activity, .increment. °C. [4]: -0.52 °C |
| O=C(N(CCCSc1ccncc1)Cc1ccccn1)C(F)(F)F [Example 78, 4-[3-(N-2-pyridylmethyl-N-trifluoroacetylamino)propylthio] pyridine dihydrochloride] | 5.2 | – | 55 | – |
| O=C(c1ccccc1)N(CCCSc1ccncc1)Cc1ccccn1 [Example 81, 4-[3-(N-2-pyridylmethyl-N-benzoylamino)propylthio]pyridine] | 6.8 | – | – | Inhibitory percentage (phenylquinone writhing) [3]: 75% |
| O=C1c2ccccc2C(=O)N1CCCOc1ccncc1 [Example 83, 4-(3-phthalimidopropyloxy)pyridine] | 10 | – | 59 | Antipyretic activity, peak time [4]: 2 h; Antipyretic activity, .increment. °C. [4]: -0.82 °C |
| O=C1c2ccccc2C(=O)N1CCCCOc1ccncc1 [Example 84, 4-(4-phthalimidobutyloxy)pyridine] | 4.5 | – | 84 | Antipyretic activity, peak time [4]: 3 h; Antipyretic activity, .increment. °C. [4]: -0.97 °C |
| CCCCCCCCCC(=O)NCCCOc1ccncc1 [Example 88] | 1.2 | – | 41 | – |
| O=C(NCCCOc1ccncc1)c1cccs1 [Example 89, 4-[3-(2-thenoylamino)propyloxy]pyridine] | – | – | 62 | Antipyretic activity, peak time [4]: 3 h; Antipyretic activity, .increment. °C. [4]: -2.72 °C |
| O=C1c2ccccc2C(O)N1CSc1ccncc1 (stereo not drawn) [Example 97, 4-(3-hydroxyisoindolin-1-on-2-ylmethylthio)pyridine] | – | 29 | – | inhibition at 1 µM ([2]; 1 μM): 30%; inhibition at 10 µM ([2]; 10 μM): 31% |
| O=C1c2ccccc2C(O)N1CCSc1ccncc1 (stereo not drawn) [Example 104, 4-[2-(3-hydroxyisoindolin-1-on-2-yl)ethylthio]pyridine] | 7.7 | 21 | – | – |
| O=C(c1ccccc1)N(CCOc1ccncc1)Cc1ccccc1 [Example 118, 4-[2-(N-benzyl-N-benzoyl)aminoethyloxy]pyridine hydrochloride] | – | 31 | – | % Inhibition of ART growth ([2]; 1 μM, hydrochloride): 8%; % Inhibition of ART growth ([2]; 10 μM, hydrochloride): 38% |
| O=C(NCCCCSc1ccncc1)c1ccccc1 [Example 127, 4-[4-(benzoylamino)butylthio]pyridine] | – | 32 | – | – |
| O=C(c1cccs1)N1CCC(Sc2ccncc2)CC1 [Example 132] | – | 45 | – | – |
| O=C(NCSc1ccncc1)c1cccnc1 [Example 138, 4-(3-picolinoylaminomethylthio)pyridine] | – | 25 | – | – |
| O=C1CCC(=O)N1CCCCSc1ccncc1 [Example 143, 4-(4-succinimidobutylthio)pyridine] | – | 27 | – | – |
| CC(C)(CSc1ccncc1)CN1C(=O)c2ccccc2C1=O [Example 145, 4-(2,2-dimethyl-3-phthalimidopropylthio)pyridine] | – | 22 | – | inhibition at 1 µM ([2]; 1 μM): 17%; inhibition at 10 µM ([2]; 10 μM): -42% |
| O=C1c2ccccc2CN1CCCCOc1ccncc1 [Example 156, 4-[4-(isoindolin-1-on-2-yl)butyloxy]pyridine] | 2.9 | 32 | – | – |
| O=C1SC(=Cc2ccccc2)C(=O)N1CSc1ccncc1 [Example 159, 4-(5-benzylidene-2,4-thiazolidinedione)methylthiopyridine] | – | 25 | – | – |
| O=C1CSC(=S)N1CCCCSc1ccncc1 [Example 163, 4-(4-rhodaninebutylthio)pyridine] | – | 29 | – | inhibition at 10 µM ([2]; 10 μM): 99% |

Now from value to compound, other results behind:

| IC50 (cyclooxygenase) [µM] | Compound | inhibition in vivo at 50 mg/kg [1] [%] | inhibition in vivo at 50 mg/kg [3] [%] | other results |
| --- | --- | --- | --- | --- |
| 5.6 | O=C(/C=C/c1ccccc1)NCCCSc1ccncc1 [Example 28, 4-[3-(cinnamoylamino)propylthio]pyridine hydrochloride] | 25 | – | – |
| 4.6 | Cc1ccc(C(=O)NCCCSc2ccncc2)cc1 [Example 31, 4-[3-(4-methylbenzoylamino)propylthio]pyridine] | 32 | – | – |
| 2.8 | COc1cc(OC)cc(C(=O)NCCCSc2ccncc2)c1 [Example 33, 4-[3-(3,5-dimethoxybenzoylamino)propylthio]pyridine] | 37 | – | inhibition at 1 µM ([2]; 1 μM): 33%; inhibition at 10 µM ([2]; 10 μM): 46% |
| 7.6 | O=C(NCCCSc1ccncc1)c1ccccc1 [Example 40, 4-[3-(benzoylamino)propylthio]pyridine] | – | 45 | Antipyretic activity, peak time [4]: 3 h; Antipyretic activity, .increment. °C. [4]: -2.00 °C |
| 13 | CC(=O)N(CCCSc1ccncc1)Cc1ccccc1.Cl [Example 76, 4-[3-(N-benzyl-N-acetylamino)propylthio]pyridine hydrochloride] | – | – | Inhibitory percentage (phenylquinone writhing) [3]: 61%; % Inhibition of ART growth ([2]; 1 μM): 3%; % Inhibition of ART growth ([2]; 10 μM): 38% |
| 1.4 | O=C(NCCCOc1ccncc1)c1cc2ccccc2s1 [Example 85, 4-[3-(thianaphtene-2-carbonylamino)propyloxy]pyridine] | – | 70 | Antipyretic activity, peak time [4]: 2 h; Antipyretic activity, .increment. °C. [4]: -1.00 °C |
| 6.3 | Cl.O=C(c1ccccc1)N(CCCSc1ccncc1)Cc1cccs1 [Example 93, 4-[3-(N-(2-thienylmethyl)benzoylamino)propylthio]pyridine hydrochloride] | – | – | Inhibitory percentage (phenylquinone writhing) [3]: 41%; inhibition at 1 µM ([2]; 1 μM): 42%; inhibition at 10 µM ([2]; 10 μM): 11% |
| 8 | O=C(NCCCOc1ccncc1)c1ccccc1CO [Example 100, 4-[3-(2-hydroxymethylbenzoyl)aminopropyloxy]pyridine] | 22 | – | inhibition at 1 µM ([2]; 1 μM): 19%; inhibition at 10 µM ([2]; 10 μM): 32% |
| 7 | O=C1c2ccccc2CN1CCCSc1ccncc1 [Example 111, 4-[3-(isoindolin-1-on-2-yl)propylthio]pyridine] | – | 64 | inhibition at 1 µM ([2]; 1 μM): 30%; inhibition at 10 µM ([2]; 10 μM): -12%; Antipyretic activity, peak time [4]: 2 h; Antipyretic activity, .increment. °C. [4]: -0.68 °C |
| 2.5 | O=C(NCCCCSc1ccncc1)c1cccs1 [Example 129, 4-[4-(2-thenonylamino)butylthio]pyridine] | 34 | – | – |

Reference: US5457106A, “Pyridine derivatives, their production and use” (Takeda Chemical Industries, Ltd., priority 1991, dated 1995)
